Results taken from patent US20060019270A1, “Global DNA methylation assessment using bisulfite PCR” (Board of Regents The University of Texas System, priority 2004, published 2006).

Test system: Alu element methylation in SW48 cells
Assay: COBRA (MboI) of Alu repetitive element PCR, SW48 cells treated with DAC
Assay type: cell-based, human
Details: 5 μM DAC for three days, decrease from 28%
Experimental: Hct116, RKO and SW48, colon cancer cell lines (American Type Culture Collection, Manassas, Va.), were cultured using standard methods. Cells were treated with 5 μM 5-aza-2′deoxycytidine (DAC) for three days prior to being harvested. DNA from cell lines and peripheral blood leukocytes was extracted using phenol-chloroform extraction methods well known to one with skill on the art.
Bisulfite modification of genomic DNA is known in the art (see Clark et. al, 1994). In brief, 1.5 μg prepared 10 mM hydroquinone (Sigma) and 520 μl of 3M Sodium Bisulfite (Sigma) at pH=5.0 were added and mixed. The samples were overlayed with mineral oil to prevent evaporation and incubated at 50° C. for 16 hours. […] Bisulfite treated DNA was stored at −20° C. until ready for use.
Methylation analysis of Alu repetitive elements was performed initially by the COBRA assay. […] The digested PCR product was then separated by polyacrylamide gel electrophoresis or the PCR products were quantitated using a capillary electrophoresis system, an Agilent 2100 Bioanalyzer (Agilent Technologies, Palo Alto, Calif.).
In order to test whether Alu element […] LINE-1 methylation could approximate global methylation, COBRA, restriction digestion of the repetitive element PCR product, was used to quantitate DNA methylation in cell lines treated with 5-aza-2′deoxycytidine (DAC) (FIG. 3). […]

Nc1ncn([C@H]2C[C@H](O)[C@@H](CO)O2)c(=O)n1 [decitabine, 5-aza-2′-deoxycytidine]
Alu methylation after treatment with DAC: 27%
